A short description of series [1]: Antiviral activity against HAV HM175 infected in African green monkey Vero cells assessed as inhibition of virus-induced cytopathic effect at MNCC measured after 48 hrs by crystal violet staining based assay relative to control. The format is functional, Human hepatitis A virus, Hu/Australia/HM175/1976.
A short description of series [2]: Antiviral activity against HAV HM175 infected in African green monkey Vero cells assessed as inhibition of virus-induced cytopathic effect measured after 48 hrs by crystal violet staining based assay. The format is functional, Human hepatitis A virus, Hu/Australia/HM175/1976.
The nature of series [3]: Cytotoxicity against African green monkey Vero cells measured after 48 hrs by crystal violet staining based colorimetric method. It counts as cell-based. Particulars: chlorocebus sabaeus; for MNTC at 48 h: read-out: MNCC; call rule not given here.
Series [4] can be described thus: Selectivity index, ratio of CC50 for African green monkey Vero cells to EC50 for HAV HM175 infected in African green monkey Vero cells. The format is toxicity. Particulars: for Ratio CC50/EC50: vero; for selectivity ratio: Vero cells, read-out: Ratio CC50/EC50.
Series [5] can be described thus: Inhibition of HAV protease 3C expressed in Escherichia coli BL21(DE3) pLysS using Dabcyl-GLRTQSND (edans) G as substrate preincubated for 3 mins before enzyme addition by fluorescence method. Set-up: species or system Hepatovirus A.
Series [6] deals with Hepatovirus A. The series is described as follows: Inhibition of HAV protease 3C expressed in Escherichia coli BL21(DE3) pLysS at 100 uM using Dabcyl-GLRTQSND (edans) G as substrate preincubated for 3 mins before enzyme addition by fluorescence method relative to control.
In series [7] the test system is Hepatovirus A. As to the kind of experiment: Inhibition of HAV protease 3C expressed in Escherichia coli BL21(DE3) pLysS at 0.1 uM using Dabcyl-GLRTQSND (edans) G as substrate preincubated for 3 mins before enzyme addition by fluorescence method relative to control.
For series [8], the system named is Hepatovirus A. As to the kind of experiment: Inhibition of HAV protease 3C expressed in Escherichia coli BL21(DE3) pLysS at 10 uM using Dabcyl-GLRTQSND (edans) G as substrate preincubated for 3 mins before enzyme addition by fluorescence method relative to control.
In series [9] the test system is Hepatovirus A. As to the kind of experiment: Inhibition of HAV protease 3C expressed in Escherichia coli BL21(DE3) pLysS at 1 uM using Dabcyl-GLRTQSND (edans) G as substrate preincubated for 3 mins before enzyme addition by fluorescence method relative to control.
Where [10] appears, read: Hepatovirus A, Hu/Australia/HM175/1976, Vero, 48 h, read-out: EC50.

For the compound `N#Cc1ccc(CSc2nc3cc4ccccc4cc3c(=O)n2CCc2ccccc2)cc1`, the “inhibition (INH)” value in [1] worked out at 2.88%. For the same compound, the EC50 result in series [2] (vero) is “Not Active”. Further, in series [3], the CC50 at 48 h came to 86.3 mg/L and the MNTC at 48 h is 15.6 µg/mL. In addition, the “Ratio CC50/EC50” value in series [4] is “Not Active”.
For `O=c1c2cc3ccccc3cc2[nH]c(=S)n1Cc1ccccc1`, the “inhibition (INH)” value in series [1] came to 67.18%. For the same compound, in [5], the IC50 is 3.3 to 36.7 µM. Also, the EC50 in series [2] (setting [10]) is 36.7 µM. In addition, the inhibition in the series on Hepatovirus A [6] was 86%; with Hepatovirus A [7], 9.85%; with Hepatovirus A [8], 64.8%; in the series with Hepatovirus A [9], 37.5%. Besides, the midpoint of cytotoxicity in [3], the CC50 at 48 h, lay at 180 µM. Moreover, in [3], the MNTC at 48 h stood at 15.6 µg/mL. Also, the selectivity ratio in series [4] worked out at 4.91.
Take `Cc1cccc(CSc2nc3cc4ccccc4cc3c(=O)n2Cc2ccccc2)c1`: the “inhibition (INH)” value in series [1] is 58.76%. Further, in [2] (setting [10]), the EC50 turned out to be 90.3 µM. Further, in [3], it took 506 µM to reach half-maximal cytotoxicity (CC50 at 48 h) and the MNTC at 48 h was 62.5 µg/mL. Besides, the selectivity ratio in series [4] worked out at 5.61.
Consider `NC12CC3CC(CC(C3)C1)C2` [AMANTADINE], for which the IC50 in series [5] is 37.2 µM. Also, the concentration for a half-maximal effect (EC50) in series [2] (setting [10]) is 37.3 µM. This compound gave a CC50 at 48 h in series [3] of 2020 µM. The selectivity ratio in [4] was 54.1.
On to `O=c1c2cc3ccccc3cc2[nH]c(=S)n1CCc1ccccc1`, for which, in series [1], the “inhibition (INH)” value was 46.36%. Besides, the EC50 in [2] (setting [10]) came out at 128 µM. Moreover, in series [3], the midpoint of cytotoxicity, the CC50 at 48 h, lay at 391 µM and the MNTC at 48 h stood at 31.2 µg/mL. For the same compound, the selectivity ratio in [4] came out at 3.06.
On to `O=c1c2cc3ccccc3cc2nc(SCc2ccc(Cl)cc2)n1CCc1ccccc1`, for which, in series [1], the “inhibition (INH)” value was found to be 41.26%. Besides, the EC50 in series [2] (setting [10]) stood at 57.9 µM. Moreover, in [3], the CC50 at 48 h came to 101 µM and the MNTC at 48 h was 15.6 µg/mL. The selectivity ratio in [4] came to 1.75.
Consider `N#Cc1cccc(CSc2nc3cc4ccccc4cc3c(=O)n2CCc2ccccc2)c1`, for which the “inhibition (INH)” value in series [1] worked out at 23.49%. Also, in series [2] (setting [10]), the EC50 was determined as 130 µM. In addition, in series [3], the midpoint of cytotoxicity, the CC50 at 48 h, lay at 163 µM and the MNTC at 48 h came to 31.2 µg/mL. Further, in series [4], the selectivity ratio came out at 1.25.
The corresponding values for `COc1cccc(CSc2nc3cc4ccccc4cc3c(=O)n2CCc2ccccc2)c1` are 54.32%, 61.7 µM, 145 µM, 31.2 µg/mL and 2.36.
The corresponding values for `N#Cc1cccc(CSc2nc3cc4ccccc4cc3c(=O)n2Cc2ccccc2)c1` are 41.94%, 164 µM, 380 µM, 62.5 µg/mL and 2.32.
The corresponding values for `Cc1ccccc1CSc1nc2cc3ccccc3cc2c(=O)n1CCc1ccccc1` are 38.09%, 69.8 µM, 86.8 µM, 15.6 µg/mL and 1.24.
Regarding `NNc1nc2cc3ccccc3cc2c(=O)n1CCc1ccccc1`, in [1], the “inhibition (INH)” value worked out at 79.81%. The IC50 in series [5] fell in the range of 5.92 to 18 µM. In addition, the EC50 in series [2] (setting [10]) was determined as 18 µM. The inhibition with Hepatovirus A [6] stood at 78.8%; with Hepatovirus A [7], 13.3%; in the series on Hepatovirus A [8], 51.5%; with Hepatovirus A [9], 33%. For the same compound, in series [3], the CC50 at 48 h turned out to be 569 µM. Also, the MNTC at 48 h in [3] is 31.2 µg/mL. Further, the selectivity ratio in series [4] is 31.6.
Consider `NNc1nc2cc3ccccc3cc2c(=O)n1Cc1ccccc1`, for which, in series [1], the “inhibition (INH)” value is 63.58%. The same compound came in with an IC50 in [5] of 22.4 to 27.6 µM. Further, the EC50 in series [2] (setting [10]) was 27.6 µM. In addition, the inhibition turned out to be 73.1% in the series with Hepatovirus A [6], 2.65% in the series on Hepatovirus A [7], 31.1% with Hepatovirus A [8] and 16.3% in the series with Hepatovirus A [9]. The CC50 at 48 h in series [3] worked out at 291 µM. The MNTC at 48 h in series [3] is 15.6 µg/mL. Further, in series [4], the selectivity ratio worked out at 10.5.
On to `COc1cccc(CSc2nc3cc4ccccc4cc3c(=O)n2Cc2ccccc2)c1`, for which, in [1], the “inhibition (INH)” value is 24.48%. In addition, in series [2] (setting [10]), the EC50 was found to be 67.8 µM. Besides, in [3], half-maximal cytotoxicity (CC50 at 48 h) was put at 82.7 µM and the MNTC at 48 h worked out at 7.8 µg/mL. Besides, the selectivity ratio in series [4] is 1.22.
Regarding `O=c1c2cc3ccccc3cc2nc(SCc2ccc([N+](=O)[O-])cc2)n1Cc1ccccc1`, in [1], the “inhibition (INH)” value is recorded as 0%. Moreover, the 50% effective concentration (EC50) entry in series [2] (vero) was “Not Active”. In addition, in series [3], the CC50 at 48 h came out at 48.2 mg/L and the MNTC at 48 h turned out to be 31.2 µg/mL. For the same compound, in series [4], the “Ratio CC50/EC50” value was “Not Active”.
Consider `O=c1c2cc3ccccc3cc2nc(SCc2ccccc2)n1Cc1ccccc1`, for which the “inhibition (INH)” value in series [1] came out at 42.31%. Moreover, the EC50 in series [2] (setting [10]) amounted to 196 µM. Besides, in series [3], the midpoint of cytotoxicity, the CC50 at 48 h, lay at 419 µM and the MNTC at 48 h came out at 62.5 µg/mL. Moreover, in series [4], the selectivity ratio turned out to be 2.14.
The corresponding values for `N#Cc1ccccc1CSc1nc2cc3ccccc3cc2c(=O)n1Cc1ccccc1` are 39.58%, 43.7 µM, 53.5 µM, 7.8 µg/mL and 1.23.
The corresponding values for `N#Cc1ccc(CSc2nc3cc4ccccc4cc3c(=O)n2Cc2ccccc2)cc1` are 23.82%, 152 µM, 206 µM, 31.2 µg/mL and 1.35.
Regarding `C=CCSc1nc2cc3ccccc3cc2c(=O)n1CCc1ccccc1`, the “inhibition (INH)” value in series [1] amounted to 3.54%. In addition, in [2] (vero), the EC50 result is listed as “Not Active”. Also, in series [3], the midpoint of cytotoxicity, the CC50 at 48 h, lay at 164 mg/L and the MNTC at 48 h stood at 62.5 µg/mL. Further, the “Ratio CC50/EC50” value in series [4] is “Not Active”.
